Results from patent US20230085307A1, “PYRIDAZINONE COMPOUND AND HERBICIDE” (NISSAN CHEMICAL CORPORATION, priority 2019, published 2023).

Assays:
[1] = tested on: rice flat sedge; assay: Test Example 3: herbicidal effect by foliage application, Wagner pot (Table 18, symbol E); assay type: in vivo, rice flat sedge (Cyperus iria); conditions: for herbicidal effect on rice flat sedge (E): 320 g/ha
Method in brief: (§1)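 Plants were sown in alluvial soil held under 0.1–0.5 cm standing water and grown 14 days in a greenhouse at 25–30 °C. An emulsifiable formulation, water-diluted to the set dose, was then sprayed onto the foliage, and effects were scored three weeks later using previously defined criteria.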

[2] = tested on: lambsquarters; assay: Test Example 5: herbicidal effect by foliage application, plastic box (Table 20, symbol O); assay type: in vivo, lambsquarters (Chenopodium album); conditions: for herbicidal effect on lambsquarters (O): three weeks after application
Method in brief: (§2)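 Plants were sown into sterilized diluvial soil under about 1.5 cm cover and kept in a greenhouse at 25° C. to 30° C. Fourteen days on, foliage received an even spray of the diluted emulsion. Herbicidal or crop effect was judged three weeks afterwards.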

[3] = tested on: blackgrass; assay: Test Example 4: herbicidal effect by soil treatment (Table 19, symbol J); assay type: in vivo, blackgrass (Alopecurus myosuroides); conditions: amount of applied herbicide 320 g/ha
Method in brief: (§3)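 Pre-emergence style soil spray: seeds under ~1.5 cm sterilized diluvial soil received a uniform coat of emulsion diluted to the predetermined herbicide amount. Greenhouse 25–30° C; readout at week three on previously defined criteria.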

[4] = tested on: Japanese bulrush; assay: Test Example 2: herbicidal activity, application during weed generation under submerged conditions (Table 17, symbol B); assay type: in vivo, Japanese bulrush (Schoenoplectus juncoides); conditions: AAH 320 g/ha; application during weed generation, submerged conditions
Method in brief: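 Herbicide emulsion, diluted with water to the chosen amount, is applied onto 4 cm floodwater over alluvial soil where the weeds were co-sown and raised at 25–30° C. Application timing: 1–2 leaves. Assessment: three weeks afterwards.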

[5] = tested on: green foxtail; assay: Test Example 4: herbicidal effect by soil treatment (Table 19, symbol G); assay type: in vivo, green foxtail (Setaria viridis); conditions: amount of applied herbicide 320 g/ha
Method in brief: as §3

[6] = tested on: southern crabgrass; assay: Test Example 4: herbicidal effect by soil treatment (Table 19, symbol F); assay type: in vivo, southern crabgrass (Digitaria ciliaris); conditions: amount of applied herbicide 320 g/ha
Method in brief: as §3

[7] = tested on: redroot pigweed; assay: Test Example 4: herbicidal effect by soil treatment (Table 19, symbol N); assay type: in vivo, redroot pigweed (Amaranthus retroflexus); conditions: amount of applied herbicide 320 g/ha
Method in brief: as §3

[8] = tested on: blackgrass; assay: Test Example 5: herbicidal effect by foliage application, plastic box (Table 20, symbol J); assay type: in vivo, blackgrass (Alopecurus myosuroides); conditions: for herbicidal effect on blackgrass (J): three weeks after application
Method in brief: as §2

[9] = tested on: southern crabgrass; assay: Test Example 5: herbicidal effect by foliage application, plastic box (Table 20, symbol F); assay type: in vivo, southern crabgrass (Digitaria ciliaris); conditions: for herbicidal effect on southern crabgrass (F): three weeks after application
Method in brief: as §2

[10] = tested on: wild oat; assay: Test Example 4: herbicidal effect by soil treatment (Table 19, symbol I); assay type: in vivo, wild oat (Avena fatua); conditions: amount of applied herbicide 320 g/ha
Method in brief: as §3

[11] = tested on: barnyard grass; assay: Test Example 5: herbicidal effect by foliage application, plastic box (Table 20, symbol H); assay type: in vivo, barnyard grass (Echinochloa crus-galli); conditions: for herbicidal effect on barnyard grass (H): three weeks after application
Method in brief: as §2

[12] = tested on: Italian ryegrass; assay: Test Example 5: herbicidal effect by foliage application, plastic box (Table 20, symbol K); assay type: in vivo, Italian ryegrass (Lolium multiflorum); conditions: for herbicidal effect on Italian ryegrass (K): three weeks after application
Method in brief: as §2

[13] = tested on: oval-leafed pondweed; assay: Test Example 1: herbicidal activity, application before weed generation under submerged conditions (Table 16, symbol C); assay type: in vivo, oval-leafed pondweed (Monochoria vaginalis); conditions: amount of applied herbicide 320 g/ha
Method in brief: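 Alluvial soil was flooded to 4 cm depth, weed seeds were sown mixed and 2.5-leaf rice seedlings were transplanted. On sowing day, the compound's emulsion, diluted in water to a set dose, was applied to the water surface. Plants grew at 25–30 °C and were scored 0–5 after three weeks.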

[14] = tested on: wild oat; assay: Test Example 5: herbicidal effect by foliage application, plastic box (Table 20, symbol I); assay type: in vivo, wild oat (Avena fatua); conditions: for herbicidal effect on wild oat (I): three weeks after application
Method in brief: as §2

[15] = tested on: velvetleaf; assay: Test Example 5: herbicidal effect by foliage application, plastic box (Table 20, symbol M); assay type: in vivo, velvetleaf (Abutilon theophrasti); conditions: for herbicidal effect on velvetleaf (M): three weeks after application
Method in brief: as §2

[16] = tested on: Chinese sprangletop; assay: Test Example 3: herbicidal effect by foliage application, Wagner pot (Table 18, symbol D); assay type: in vivo, chinese sprangletop (Leptochloa chinensis); conditions: for herbicidal effect on Chinese sprangletop (D): 320 g/ha
Method in brief: as §1

[17] = amount of applied herbicide 320 g/ha
[18] = foliage application, AAH 320 g/ha, evaluated three weeks after application
[19] = 320 g/ha, foliage application after 14-day growth, evaluated three weeks after application

| Compound | herbicidal effect rating, B: Japanese bulrush [4] | Herbicidal effect, C: oval-leafed pondweed [13] | herbicidal effect on lambsquarters (O) ([2]; foliage application, 320 g/ha) | J: blackgrass, herbicidal effect grade [3] | G: green foxtail, herbicidal effect grade [5] | F: southern crabgrass, herbicidal effect grade [6] | N: redroot pigweed, herbicidal effect grade [7] | herbicidal effect on blackgrass (J) ([8]; foliage application, 320 g/ha) | herbicidal effect on southern crabgrass (F) ([9]; foliage application, 320 g/ha) | I: wild oat, herbicidal effect grade [10] | herbicidal effect on barnyard grass (H) ([11]; foliage application, 320 g/ha) | herbicidal effect on Italian ryegrass (K) ([12]; foliage application, 320 g/ha) | herbicidal effect on wild oat (I) ([14]; foliage application, 320 g/ha) | herbicidal effect on velvetleaf (M) ([15]; foliage application, 320 g/ha) | herbicidal effect on rice flat sedge (E) [1] | herbicidal effect on Chinese sprangletop (D) [16] | also measured |
| --- | --- | --- | --- | --- | --- | --- | --- | --- | --- | --- | --- | --- | --- | --- | --- | --- | --- |
| Cc1nn(C)c(=O)c(-c2c(-c3cnccc3C(F)(F)F)sc3ccc(F)cc23)c1O [2-387] | 4 (Herbicidal rate of 70% or more and less than 90%) | 0 (Herbicidal rate of 5% or less (almost no effect)) | – | – | – | – | – | – | – | – | – | – | – | – | – | – | herbicidal effect on E: rice flat sedge [1, 17]: 5 (Herbicidal rate of 90% or more (almost completely withered)); O: lambsquarters, herbicidal effect (criteria 0-5) [2, 18]: 5 (Herbicidal rate of 90% or more (almost completely withered)); herbicidal effect, J: blackgrass [3]: 0 (Herbicidal rate of 5% or less (almost no effect)); herbicidal effect, G: green foxtail [5]: 3 (Herbicidal rate of 40% or more and less than 70%); herbicidal effect, F: southern crabgrass [6]: 3 (Herbicidal rate of 40% or more and less than 70%); herbicidal effect, N: redroot pigweed [7]: 5 (Herbicidal rate of 90% or more (almost completely withered)); J: blackgrass, herbicidal effect (criteria 0-5) [8, 18]: 4 (Herbicidal rate of 70% or more and less than 90%); F: southern crabgrass, herbicidal effect (criteria 0-5) [9, 18]: 4 (Herbicidal rate of 70% or more and less than 90%); herbicidal effect, I: wild oat [10]: 1 (Herbicidal rate of 5% or more and less than 20%); H: barnyard grass, herbicidal effect (criteria 0-5) [11, 18]: 5 (Herbicidal rate of 90% or more (almost completely withered)); K: Italian ryegrass, herbicidal effect (criteria 0-5) [12, 18]: 4 (Herbicidal rate of 70% or more and less than 90%); I: wild oat, herbicidal effect (criteria 0-5) [14, 18]: 4 (Herbicidal rate of 70% or more and less than 90%); M: velvetleaf, herbicidal effect (criteria 0-5) [15, 18]: 5 (Herbicidal rate of 90% or more (almost completely withered)); herbicidal effect on D: Chinese sprangletop [16, 17]: 5 (Herbicidal rate of 90% or more (almost completely withered)) |
| COc1ccc(-c2oc3ccc(F)cc3c2-c2c(O)c(C)nn(C)c2=O)cc1 [Compound No. 9-020, 4-(5-fluoro-2-(4-methoxyphenyl)benzofuran-3-yl)-5-hydroxy-2,6-dimethylpyridazin-3(2H)-one] | 3 (Herbicidal rate of 40% or more and less than 70%) | 5 (Herbicidal rate of 90% or more (almost completely withered)) | 5 (Herbicidal rate of 90% or more (almost completely withered)) | 3 (Herbicidal rate of 40% or more and less than 70%) | 1 (Herbicidal rate of 5% or more and less than 20%) | 4 (Herbicidal rate of 70% or more and less than 90%) | 5 (Herbicidal rate of 90% or more (almost completely withered)) | 4 (Herbicidal rate of 70% or more and less than 90%) | 4 (Herbicidal rate of 70% or more and less than 90%) | 2 (Herbicidal rate of 20% or more and less than 40%) | 5 (Herbicidal rate of 90% or more (almost completely withered)) | 4 (Herbicidal rate of 70% or more and less than 90%) | 3 (Herbicidal rate of 40% or more and less than 70%) | 5 (Herbicidal rate of 90% or more (almost completely withered)) | – | – | Herbicidal effect on E (rice flat sedge), foliage application [1, 17]: 5 (Herbicidal rate of 90% or more (almost completely withered)); Herbicidal effect on D (Chinese sprangletop), foliage application [16, 17]: 4 (Herbicidal rate of 70% or more and less than 90%) |
| CCOc1ccccc1-c1sc2cc(C)c(C)cc2c1-c1c(O)c(C)nn(C)c1=O [5-094] | 3 (Herbicidal rate of 40% or more and less than 70%) | 4 (Herbicidal rate of 70% or more and less than 90%) | 4 (Herbicidal rate of 70% or more and less than 90%) | 1 (Herbicidal rate of 5% or more and less than 20%) | 4 (Herbicidal rate of 70% or more and less than 90%) | 4 (Herbicidal rate of 70% or more and less than 90%) | 3 (Herbicidal rate of 40% or more and less than 70%) | 4 (Herbicidal rate of 70% or more and less than 90%) | 5 (Herbicidal rate of 90% or more (almost completely withered)) | 0 (Herbicidal rate of 5% or less (almost no effect)) | 5 (Herbicidal rate of 90% or more (almost completely withered)) | 5 (Herbicidal rate of 90% or more (almost completely withered)) | 1 (Herbicidal rate of 5% or more and less than 20%) | 4 (Herbicidal rate of 70% or more and less than 90%) | 4 (Herbicidal rate of 70% or more and less than 90%) | 3 (Herbicidal rate of 40% or more and less than 70%) | – |
| CCCC(=O)Oc1c(C)nn(C)c(=O)c1-c1c(-c2ccc(OC(F)(F)F)cc2)sc2cc(F)ccc12 [3-144] | 3 (Herbicidal rate of 40% or more and less than 70%) | 0 (Herbicidal rate of 5% or less (almost no effect)) | – | – | – | – | – | – | – | – | – | – | – | – | 5 (Herbicidal rate of 90% or more (almost completely withered)) | 4 (Herbicidal rate of 70% or more and less than 90%) | herbicidal effect on O: lambsquarters (evaluation grade 0-5) [2, 19]: 5 (Herbicidal rate of 90% or more (almost completely withered)); Herbicidal effect by soil treatment, J: blackgrass [3]: 0 (Herbicidal rate of 5% or less (almost no effect)); Herbicidal effect by soil treatment, G: green foxtail [5]: 0 (Herbicidal rate of 5% or less (almost no effect)); Herbicidal effect by soil treatment, F: southern crabgrass [6]: 1 (Herbicidal rate of 5% or more and less than 20%); Herbicidal effect by soil treatment, N: redroot pigweed [7]: 4 (Herbicidal rate of 70% or more and less than 90%); herbicidal effect on J: blackgrass (evaluation grade 0-5) [8, 19]: 0 (Herbicidal rate of 5% or less (almost no effect)); herbicidal effect on F: southern crabgrass (evaluation grade 0-5) [9, 19]: 1 (Herbicidal rate of 5% or more and less than 20%); Herbicidal effect by soil treatment, I: wild oat [10]: 0 (Herbicidal rate of 5% or less (almost no effect)); herbicidal effect on H: barnyard grass (evaluation grade 0-5) [11, 19]: 4 (Herbicidal rate of 70% or more and less than 90%); herbicidal effect on K: Italian ryegrass (evaluation grade 0-5) [12, 19]: 0 (Herbicidal rate of 5% or less (almost no effect)); herbicidal effect on I: wild oat (evaluation grade 0-5) [14, 19]: 0 (Herbicidal rate of 5% or less (almost no effect)); herbicidal effect on M: velvetleaf (evaluation grade 0-5) [15, 19]: 4 (Herbicidal rate of 70% or more and less than 90%) |
